Results from ChEMBL document CHEMBL5620353, “Novel antifungal triazoles with alkynyl-methoxyl side chains: Design, synthesis, and biological activity evaluation” (Eur J Med Chem, 2023).
Active and inactive are the calls of the source. The calls are words filed in the database; no cut-off is given here.

Columns and labels:
[1] = tested on: Candida albicans; test: Antifungal activity against Candida albicans assessed as increase in pseudohyphae at 16 ug/ml; type: functional, organism-based; settings: dose 16.0 µg/ml
[2] = tested on: Candida albicans; test: Antifungal activity against Candida albicans SC5314 infected in Galleria mellonella larvae assessed as prolongation of survival time at 2 mg/kg measured after 10 days post inoculation; type: functional, organism-based; settings: time 10.0 day
[3] = tested on: Candida albicans; test: Antifungal activity against Candida albicans SC5314 infected in Galleria mellonella larvae assessed as delay in time of larval death at 8 mg/kg measured after 10 days post inoculation; type: functional, organism-based; settings: time 10.0 day
[4] = tested on: Candida albicans; test: Antifungal activity against Candida albicans SC5314 infected in Galleria mellonella larvae assessed as larval survival rate at 8 mg/kg measured after 10 days post inoculation relative to control; type: functional; settings: SC5314, 240 h, time 10 day

With `C[C@@H](OCC#Cc1ccc(C#N)cc1)[C@](O)(Cn1cncn1)c1ccc(F)cc1F` the Activity [1] was “Active”, the Activity [2] was “Active” and the Activity [3] was “Active”. It also gave a survival at 8 mg/kg [4] of 40%.
